The target in test [1] is T1, human Prostaglandin F2α receptor (Homo sapiens, UniProt P43088).
T1 construct: Human Prostaglandin F2α receptor (full-length cDNA) was subcloned into the pCEP4; expressed in transfected cells; host or cells: HEK 293 EBNA cells (membrane preparation)
Description: In vitro competition binding assay on human Prostaglandin F2α receptor (Scintillation Proximity Assay, 3H PGF2-alpha radioligand). The note with it: scintillation proximity competition binding assay against Prostaglandin F2α as radioligand; read-out: Binding affinity for human Prostaglandin F2α receptor Ki. The source says:
The compounds of formula (II), were be subjected to the following in vitro and in vivo biological assays: • 1) In vitro competition binding assay on human Prostaglandin F2α receptor using a Scintillating Proximity Assay (SPA)
This assay allows to determine the binding affinity of the test compounds of formula (I) for the human Prostaglandin F2α receptor: […]
Human Prostaglandin F2α receptor (full-length cDNA) was subcloned into the pCEP4 (Invitrogen) vector and transfected together with the hygromycin resistance gene into HEK 293 EBNA cells by Calcium-phosphate co-precipitation method. Antibiotic resistant cells were grown under constant selection pressure in DMEM/F-12 medium supplemented with 2% fetal calf serum, 4 mM L-Glutamine and 8 ml/l Insulin-Transferrin-Selenium-mix (all Invitrogen) and 300 μg/ml hygromycin at 37° C. in a humidified atmosphere of 5% CO2 in air. At 48 h before harvesting, receptor expression was enhanced by adding 5 mM of Na-butyrate. Cells were washed twice with phosphate buffer saline, harvested and pelleted by centrifugation.
Cell pellet was lysed by Dounce homogenisation in 250 mM sucrose, 25 mM Tris-HCl pH 7.5, 10 mM MgCl2, 1 mM EDTA containing proteases inhibitors according to the manufacturer (Boehringer Mannheim) at 4° C. The lysate was centrifuged at 1000 g, 4° C. for 10 min and the supernatant was centrifuged at 160000 g, 4° C. for 60 min. The membranes pellets were resuspended in binding buffer (10 mM MES pH 6.2, 10 mM MgCl2, 1 mM EDTA containing proteases inhibitors), frozen in dry ice ethanol and stored at −80° C.
In vitro competition binding with Scintillation proximity assay (SPA) was performed in Corning NBS 96 wells plates. Briefly, 100 μl of binding buffer containing 15 to 30 μg of purified membranes, 4 mg/ml of wheat-germ agglutinin (WGA) SPA beads and 1 to 2 nM of ^3H PGF2-alpha (determined by Scatchard analysis) in 1% DMSO was incubated for 2 hours at room temperature. Non-specific binding was determined in the presence of 1 μM of non-radioactive Prostaglandin F2α. The concentrations of compounds (antagonist) used to compete with the radioactive ligand (agonist) were 10 μM, 3 μM, 1 μM, 300 nM, 100 nM, 30 nM, 10 nM, 1 nM, 100 pM, 10 pM. The radioactivity was counted on a Microbeta plate counter and the binding data were analysed using the iterative, non-linear, curve-fitting program, “Prism” (GraphPad Software, Inc).
On the technique in general: SPA uses beads or plates that emit light when radiolabelled molecules are held near them.

Test [2] deals with uterine contractions in non-pregnant Sprague Dawley female rats. The test can be described thus: PGF2α or fluprostenol-induced uterine contractions in non-pregnant rats. It is filed as in vivo, rat. The note with it: 40 minutes after administration by i.v. route, cumulative dose of 30 mg/kg. On the procedure: a) PGF2α or fluprostenol-induced uterine contractions in non-pregnant rats
Non-pregnant Sprague Dawley female rats (Charles River, Calco, Italy) weighing 200-300 g were used. They received an i.p. injection of 250 μg/kg diethylstilbestrol (DES) 18 and 24 hours before the experiment. On the day of the experiment, they were anaesthetized with urethane (1.05 g/kg, i.p.) and placed on a homeothermic operating table. The trachea was then isolated and cannulated with a suitable polyethylene (PE) tubing. A midline incision at the hypogastrium level was made, one uterine horn exposed and its tubal end closed (near the ovary) by a ligature with surgical silk. About 3 cm posteriorly to the first tie, the uterine horn wall was incited (close to the uterus body) and a PE240 tubing was inserted into the lumen and secured with surgical silk. After filling the internal cavity with 0.2 ml of sterile physiological saline solution, the catheter was connected to an amplifying/recording system (MacLab, ADInstruments Pty Ltd, Castle Hill, Australia) via a P23ID Gould Statham pressure transducer. One jugular vein was then isolated and cannulated with a PE60 catheter connected to a butterfly needle for the intravenous administration of Prostaglandin F2α (Sigma Chem. co., St. Louis, Mo., USA) and (±)fluprostenol (Cayman Chemicals, Ann Arbor, Mich., USA) or test compounds. […]

In test [3] the test system is spontaneous uterine contractions in late-term pregnant Sprague Dawley female rats. The test can be described thus: Spontaneous uterine contractions in late-term pregnant rats. It is filed as in vivo, rat. An excerpt: b) Spontaneous Uterine Contractions in Late-Term Pregnant Rats: • (i) Preparation of the Experiment:
Late-term pregnant (19-21 days of gestation) Sprague Dawley female rats (Charles River, Calco, Italy) weighing 350-400 g were anesthetized with urethane (1.05 g/kg, i.p.) and placed on a homeothermic operating table. The trachea was isolated and cannulated with a suitable polyethylene (PE) tubing. A midline incision at the hypogastrium level was made, one pregnant uterine horn exposed and its tubal end closed (near the ovary) by a ligature with surgical silk. In the correspondence of the last foetus near the above-mentioned ovary, the uterine horn wall was incited taking care not to injure the adjacent placenta, and a PE240 tubing with a latex balloon (9 mm length when empty, capacity 0.1 ml; Radnoti, Monrovia, Calif., USA) on the top was inserted into the lumen and secured with surgical silk. After filling the internal cavity of the latex balloon with 0.1 ml of sterile physiological saline solution, the catheter was connected to an amplifying/recording system (MacLab, ADInstruments Pty Ltd, Castle Hill, Australia) via a P23ID Gould Statham pressure transducer. […]
The spontaneous contractile response of the uterus was quantified by evaluating the area under the curve (AUC) of the changes in the intra-luminal uterine pressure over time (by Chart V4.04 for Windows software, PowerLab ADInstruments, Castle Hill, Australia). The effect of the test compound on the spontaneous uterine contraction was evaluated as the percent variation of the AUC calculated in a 10-min interval following the administration of each dose of test compound as compared to the AUC in a 10-min interval before the administration of the first dose of test compound (basal value). When possible, a dose-response curve (of peak effect) was plotted and the relative ED50 value calculated (by S-Plus 2000 v. 4.6 statistical software, Mathsoft, Inc. Seattle, Wash., USA).

The target of test [4] is T1, human Prostaglandin F2α receptor. The test can be described thus: Inhibition of Prostaglandin F2α induced Ca2+-mobilization in HEK/EBNA cells expressing the Prostaglandin F2α receptor (FLIPR). In kind it is cell-based. The following applies: HEK EBNA cells expressing the human Prostaglandin F2α receptor, 2 times the EC50 of Prostaglandin F2α. On the procedure:
• 3) In vitro functional assay 2: Inhibition of Prostaglandin F2α induced Ca^2′-mobilization in HEK/EBNA-cells expressing the Prostaglandin F2α receptor, as measured by FLIPR® (Fluorimetric Imaging Plate Reader).
HEK EBNA cells were seeded at 60000 cells/well in a Poly-L-Lysine precoated black/white bottom 96 well plate. […] Calcium mobilization was then measured on the FLIPR for 4 min. […] After the wash with FLIPR buffer, increasing concentrations of test compounds were added to the cells in FLIPR buffer and calcium mobilization was measured for 1 min.

The target is the same in test [5]. Description: Inhibition of Prostaglandin F2α induced IP3 synthesis in HEK/EBNA cells expressing the Prostaglandin F2α receptor. It is filed as cell-based. The note with it: HEK EBNA cells expressing the human Prostaglandin F2α receptor; 30 nM PGF2α.
Description: • 2) In vitro functional assay 1: Inhibition of Prostaglandin F2α induced IP3 (Inositol Triphosphate) Synthesis in HEK/EBNA-cells expressing the Prostaglandin F2α receptor
Cells were transfected by the calcium phosphate precipitation method with the appropriate plasmid and selected for hygromycinB resistance. The surviving colonies were assayed for their ability to retain specific [^3H] PGF2α binding. Selected clones were maintained in DMEM-F12 medium supplemented with 4 mM L-glutamine, 300 μg/ml hygromycinB and 2% fetal bovine serum (10% for cells expressing rFP).
Cells were detached with PBS/EDTA, washed with inositol-free DMEM-F12 medium and seeded at 80000 cells/well in a Poly-L-Lysine precoated 12 well plate. Cells were labelled with myo-[^3H] Inositol at 4 μCi/ml in inositol-free DMEM-F12 supplemented with 1% fetal bovine serum, 4 mM L-glutamine and 300 μg/ml hygromycinB. After 24 hours (rFP expressing cells) or 40 hours (hFP expressing cells), the medium was removed and cells were pre-incubated for 10 min in assay buffer (DMEM-F12 without Inositol, 20 mM Hepes, 0.1% BSA) containing 20 mM LiCl at 37° C. For agonist dose response, cells were then stimulated for 1 hour at room temperature with increasing concentration of PGF2α, in assay buffer. […] For agonist activity determination of the test compounds themselves, the test compounds were added to the cells at 10 μM and 1 μM for 1 hour at room temperature.
800 μl were then transferred to 400 μl of neutralizing solution (0.72N KOH, 0.6 M KHCO3), vortexed, and sedimented for at least 2 hours at 4° C. After centrifugation of 15 min. at 2500 g, 1 ml of the supernatant was loaded on a chromatography column, followed by two washes with 10 ml of water. The IP3 to be quantified were eluted with 3 ml elution buffer (1M ammonium formate, 0.1 M formic acid) and radioactivity was counted on a Beckman LS6000TA scintillation counter to measure the amount of phosphorylated [^3H] inositol.

T1 sequence (P43088 whole entry): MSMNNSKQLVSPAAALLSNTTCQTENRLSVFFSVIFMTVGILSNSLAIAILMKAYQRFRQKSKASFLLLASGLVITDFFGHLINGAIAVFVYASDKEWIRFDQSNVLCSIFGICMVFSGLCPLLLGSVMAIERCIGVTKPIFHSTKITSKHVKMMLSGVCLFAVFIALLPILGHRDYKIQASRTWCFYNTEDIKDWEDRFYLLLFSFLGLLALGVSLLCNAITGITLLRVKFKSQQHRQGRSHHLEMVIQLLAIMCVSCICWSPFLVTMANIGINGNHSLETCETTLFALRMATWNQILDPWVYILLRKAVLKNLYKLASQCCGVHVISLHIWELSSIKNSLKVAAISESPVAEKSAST

`O=C(NC(CCO)c1ccco1)C1SCCN1S(=O)(=O)c1ccc(-c2ccccc2)cc1` (centres unmarked) [3-([1,1′-biphenyl]-4-ylsulfonyl)-N-[1-(2-furyl)-3-hydroxypropyl]-1,3-thiazolidine-2-carboxamide]: the inhibitory constant (Ki) in test [1] is 620 nM.
On the same count and under the same terms, the result for `O=C(NC(CN1CCCC1)c1ccccc1)C1SCCN1S(=O)(=O)c1ccc(-c2ccccc2)cc1` (centres unmarked) [3-([1,1′-biphenyl]-4-ylsulfonyl)-N-[1-phenyl-2-(1-pyrrolidinyl)ethyl]-1,3-thiazolidine-2-carboxamide] reads 170 nM.
Turning to `O=C(NCCc1ccccc1)NCc1ccc(CNC(=O)C2SCCN2S(=O)(=O)c2ccc(-c3ccon3)s2)cc1` (centres unmarked) [3-{[5-(3-isoxazolyl)-2-thienyl]sulfonyl}-N-{4-[({[(2-phenylethyl)amino]carbonyl}amino)methyl]benzyl}-1,3-thiazolidine-2-carboxamide], in test [1], the Ki turned out to be 1100 nM.
Consider `Cc1c(S(=O)(=O)N2CCSC2C(=O)N[C@@H](Cc2ccccc2)C(=O)O)sc2ccc(Cl)cc12` (stereo partly drawn) [(2S)-2-[({3-[(5-chloro-3-methyl-1-benzothien-2-yl)sulfonyl]-1,3-thiazolidine-2-yl}carbonyl)amino]-3-phenylpropanoic acid], for which the inhibition constant Ki in test [1] was determined as 330 nM.
Turning to `O=C(N[C@@H](CCO)c1ccccc1)[C@@H]1SCCN1S(=O)(=O)c1ccc(-c2ccccc2)cc1` [Example 1, (2S)-3-([1,1′-biphenyl]-4-ylsulfonyl)-N-[(1S)-3-hydroxy-1-phenylpropyl]-1,3-thiazolidine-2-carboxamide], the Ki in test [1] came out at 65 nM. Moreover, the “inhibition of uterine contractions” value is 26% in test [2] and more than 50% in test [3] (i.v. route (infusion over 10 minutes), cumulative dose of 30 mg/kg). Also, the 50% effective dose (ED50) in test [3] (Rattus norvegicus, iv, 10 min, i.v. infusion over 10 minutes, spontaneous uterine contractions, read-out: calculated ED50 value) was 28 mg/kg. Besides, the “calculated ED50 value” in test [3] (i.v. infusion over 10 minutes, spontaneous uterine contractions) is reported as 2.8 mg/kg/min. For the same compound, the results for the IC50 in test [4] and in test [5] were 48 nM and 185 nM, respectively.
`CCC(C)(C)c1ccc(S(=O)(=O)N2CCS[C@H]2C(=O)N[C@@H](CCO)c2ccccc2)cc1` [Example 10, (2S)—N-[(1S)-3-hydroxy-1-phenylpropyl]-3-[(4-tert-pentylphenyl)sulfonyl]-1,3-thiazolidine-2-carboxamide]: the inhibitory constant (Ki) in test [1] stood at 120 nM.
In the case of `O=C(NC(CCO)c1c(F)cccc1F)C1SCCN1S(=O)(=O)c1ccc(-c2ccccc2)cc1` (centres unmarked) [Example 14, 3-([1,1′-biphenyl]-4-ylsulfonyl)-N-[1-(2,6-difluorophenyl)-3-hydroxypropyl]-1,3-thiazolidine-2-carboxamide], the Ki in test [1] stood at 50 nM.
In the case of `CN(CC[C@H](NC(=O)[C@@H]1SCCN1S(=O)(=O)c1ccc(-c2ccccc2)cc1)c1ccccc1)Cc1ccccc1` [Example 19], the Ki in test [1] was 20 nM.
For `CN(CCO)CC[C@H](NC(=O)[C@@H]1SCCN1S(=O)(=O)c1ccc(-c2ccccc2)cc1)c1ccccc1` [Example 21, (2S)-3-([1,1′-biphenyl]-4-ylsulfonyl)-N-{(1S)-3-[(2-hydroxyethyl)(methyl)-amino]-1-phenylpropyl}-1,3-thiazolidine-2-carboxamide], the half-inhibitory concentration (IC50) in test [4] was 202 nM; in test [5], 225 nM.
For `O=C(N[C@H](c1ccccc1)c1ccccn1)[C@@H]1SCCN1S(=O)(=O)c1ccc(-c2ccccc2)cc1` [Example 62, (2S)-3-(1,1′-biphenyl-4-ylsulfonyl)-N—[(R)-phenyl(pyridin-2-yl)methyl]-1,3-thiazolidine-2-carboxamide], in test [1], the Ki was found to be 55 nM. Besides, the half-inhibitory concentration (IC50) in test [4] stood at 20 nM; in test [5], 15 nM.
Turning to `CC(=O)NCCNCCC(NC(=O)C1SCCN1S(=O)(=O)c1ccc(-c2ccccc2)cc1)c1ccccc1` (centres unmarked) [N-(3-{[2-(acetylamino)ethyl]amino}-1-phenylpropyl)-3-([1,1′-biphenyl]-4-ylsulfonyl)-1,3-thiazolidine-2-carboxamide], in test [1], the Ki came to 1150 nM.

Broadly, the Ki is the dissociation constant of the complex between target and ligand, obtained from inhibition or displacement. A word on the ED50: it is the dose at which the effect has come halfway, by size or by number of responders. In general, IC50 refers to the point on the concentration scale where inhibition reaches its midpoint. Read a low IC50 as higher potency.

Source of the values: patent publication US8415480B2, “Thiazolidine carboxamide derivatives as modulators of the prostaglandin F receptor” (Merck Serono SA, priority 2002, dated 2013).
